Experiments:
topoisomerase IIα = assay: Amount of expression of topoisomerase IIα in whole cell extract by western blotting; type: cell-based, human; settings: glucose starvation condition 14 hours; PSI, MG115, MG132 5 µM; lactacystin 10 µM; E64, ZLLal 50 µM; FIG. 5(a)-(c)
Description: Topoisomerase II inhibiting anticancer drug stabilizes a complex (cleavable complex) consisting of the DNA and topoisomerase IIα occurring in a catalytic reaction process of topoisomerase IIα to cause DNA damage. Therefore, cell-killing effect of the topoisomerase II-inhibiting anticancer drug depends on the amount of intracellular expression of topoisomerase IIα essential for formation of the cleavable complex. Then, the amount of expression of topoisomerase IIα in the cultured cancer cell under the glucose starvation and hypoxia environment that are found in the solid cancer and the effect of the proteasome inhibiting agent to the amount of expression were examined.
The culture condition of cells is same as that described in Example 1 including the M phase synchronous culture method and culture under the glucose starvation condition. Culture under hypoxia condition, that is found in the solid cancer, similar to glucose starvation was carried out using the culture medium (that prepared by adding 5% FBS to RPMI1640 culture medium) under the ordinary condition in a Gaspack 100 anaerobic system (Becton Dickinson made). Culture under the glucose starvation condition and hypoxia condition was carried out for 14 hours .
With the purpose to prepare a whole cell extract solution, cells culture under the above described condition were washed with an ice-cooled PBS twice and then, cells were removed from the culture dish by using a cell scraper (Sumitomo Bakelite made) for collection. Cells collected were precipitated by centrifugation and then, dissolved in an SDS sample buffer to collect as the extract solution from all cells. For reference, the composition of the SDS sample buffer was 10% v/v, glycerol, 5% 2-mercaptoethanol, 2% SDS (sodium lauryl sulfate), and 62.5 mM tris-hydrochloric acid (pH 6.8).
The amount of topoisomerase IIα in the extract solution from all cells was measured by the western blotting method. The extract solution from all cells containing a total protein quantity of 30 µg was put on an SDS polyacrylamide gel (4-20 Multigel: Daiichi Pure Chemicals K.K. made) and subjected to electrophoresis in an electrophoresis buffer (25 mM tris, 192 mM glycine, and 0.1% SDS) in a 40 mA constant current for 1 hour. Subsequently, blotting was carried out in 4°C blotting buffer (25 mM tris, 192 mM glycine, and 20% methanol) in a 50 V constant voltage for 12 hours to transfer a protein separated in the SDS polyacrylamide gel to a nitrocellulose membrane. This nitrocellulose membrane was soaked in a blocking buffer (0.1% Tween 20, 4% skim milk-added PBS) for 1 hour to carry out blocking. The nitrocellulose membrane blocked was soaked in a solution, that was prepared by adding anti-topoisomerase IIα antibody (Cambridge Research Biochemicals Corp. made) of the final concentration 1 µg/ml as the primary antibody to the blocking buffer solution, for 1 hour. The nitrocellulose membrane was washed with the blocking buffer three times (5 minutes once), and then, soaked in the solution, in which a 1/1000 volume of an antimouse antibody (Amersham Pharmacia Biotech made) labeled with horse radish peroxidase as a secondary antibody had been added to the blocking buffer, for 1 hour. The nitrocellulose membrane was washed with the blocking buffer three times (5 minutes once), and then, washed with the PBS, to which 0.1% Tween 20 was added, three times (5 minutes once). The nitrocellulose membrane after completion of antibody reaction and washing was treated with the ECL reagent (Amersham Pharmacia Biotech made) after a handling manual and a topoisomerase IIα-specific signal was detected on an X-OMAT™AR film (Kodakmade). For reference, steps after blotting was carried out in a room temperature. […]
The cell culture condition for both M phase-synchronized culture method and culture under the glucose starvation condition was as described in Example 1. […]

[1] = tested on: human colon adenocarcinoma cell HT-29; assay: Sensitivity of cells to anticancer drug by colony formation method (M phase-synchronized cells, with or without proteasome inhibiting agent); type: cell-based; settings: for change of cell-killing effect of camptothecin: lactacystin 10 µM 13 hours, camptothecin 4 hours, FIG. 14
Method: In the glucose starvation environment found in the solid cancer, the effect of combined use of the proteasome inhibitor in a human colon adenocarcinoma cell HT-29 with the anticancer drug targeting topoisomerase II was tested.
Concerning culture media, for a culture condition in a normal state, RPMI 1640 medium (Nissui Pharmaceutical Co.-made) to which a 5% FBS (fetal bovine serum) was added and for the culture condition in the glucose starvation state symbolically found in the solid cancer, RPMI 1640 medium (Lifetech Oriental-made), lacking glucose, in which the 5% FBS was added were used, respectively. Culture was carried out using a CO2 incubator (Tabai Espec-made) under conditions of 5% CO2/95% air and humidity 100%.
In order to test sensitivity to the anticancer drug, the cell cycle synchronization culture methodwas employed. Nocodazol (Sigma made) was used to synchronize the cell cycle, cells in a logarithmic proliferation phase were treated with 40 ng/ml Nocodazol for 9 hours, and cells accumulated in cell division phase (Mpahse) were collected by gentle pipetting. M phase-synchronized cells collected through these steps were washed with PBS (phosphate buffered saline) followed by inoculation of 1×10^5 cells per well of 12 well-culture plate.
M phase-synchronized cells were cultured under the normal condition and the glucose starvation condition to conduct treatments with the proteasome inhibiting agent and the anticancer drug as follows. For cells under the glucose starvation condition, the culture medium, to which the proteasome inhibiting agent and the protease inhibiting agent not inhibiting proteasome were added as the control group, and the culture medium, to which no inhibiting agent has been added, was used. For cells under the normal condition, the culture medium, to which each inhibiting agent was not added, was used. After inoculation of cells, culture was carried out for 13 hours in each culture medium. […]
Sensitivity of cells to the anticancer drug was measured using the colony formation method. As described above, cells treated with the proteasome inhibiting agent and the anticancer drug were washed with PBS followed by soaking in trypsin (Lifetech Oriental made) solution and removed from a culture dish to suspend in an ordinary culture medium. These cells were inoculated again in 500 to 5000 cells for a 10 cm culture dish and cultured for 10 to 12 days to form a colony. The colony formed was fixed by 10% formaldehyde solution and stainedwith 0.01% crystal violet (Wako Pure Chemicals made) solution. Number of colony was counted and a Cell survival rate was calculated assuming that the number of colonies untreated with the anticancer drug is 1.
For reference, the proteasome inhibiting agent and the protease inhibiting agent not inhibiting proteasome used as described above were as follows. • (1) Proteasome inhibiting agent • . […] MG115 (carbobenzoxy-L-Leucyl-L-Leucyl-L-Norvalinal): final concentration 2.5 µM (Peptide Institute Inc. made) • . MG132 (carbobenzoxy-L-Leucyl-L-Leucyl-Leucinal) : final concentration 2.5 µM (Peptide Institute Inc. made) • . Lactacystin, final concentration 10 µM (Kindly supplied from The Kitasato Institute made) • (2) Protease inhibiting agent not inhibiting proteasome • . E64, final concentration 25 µM (Peptide Institute Inc. made) • . ZLLal (carbobenzoxy-L-Leucyl-L-Leucinal): final concentration 25 µM (Peptide Institute Inc. made)
The cell culture condition for both M phase-synchronized culture method and culture under the glucose starvation condition was as described in Example 1. M phase-synchronized cells were cultured in the culture medium, to which lactacystin of the final concentration 10 µM was added, or the culture medium, to which this was not added, as the proteasome inhibiting agent under the ordinary condition and the glucose starvation condition, respectively, for 13 hours. […]

## CC(=O)N[C@@H](CSC(=O)[C@]1([C@@H](O)C(C)C)NC(=O)[C@H](C)[C@@H]1O)C(=O)O [lactacystin]
Topoisomerase IIα
  expressed amount of topoisomerase IIα: similarly inhibits drop of expression of topoisomerase IIα
[1]; glucose starvation condition, lactacystin 7.5 µM 13 hours, bleomycin 4 hours
  change of cell-killing effect of bleomycin: enhances the cell-killing effect
[1]; glucose starvation condition, lactacystin 7.5 µM 13 hours, mitomycin C 4 hours
  change of cell-killing effect of mitomycin C: enhances the cell-killing effect of mitomycin C
[1]; glucose starvation condition
  change of cell-killing effect of camptothecin: enhances the cell-killing effect of camptothecin
[1]; glucose starvation condition, lactacystin 10 µM, FIG. 3
  effect on etoposide sensitivity: enhances sensitivity to etoposide
[1]; ordinary culture condition and glucose starvation condition, lactacystin 7.5 µM 13 hours, cisplatin 4 hours, FIG. 18
  change of cell-killing effect of cisplatin: enhances the cell-killing effect of cisplatin
[1]; ordinary culture condition
  change of cell-killing effect of camptothecin: the cell-killing effect thereof is enhanced

From patent publication EP1153612A1, “ANTICANCER AGENT POTENTIATORS” (Tsuruo, Takashi, priority 1999, dated 2000)
